Assays:
[1] = biological target: RAC-alpha serine/threonine-protein kinase (Homo sapiens, UniProt P31749); assay: Inhibition of AKT1 (unknown origin) using biotinylated-STK as substrate after 45 mins by HTRF assay
JeKo-1 [2] = assay: Induction of apoptosis in human JeKo1 cells assessed as necrotic cells at 5 uM after 48 hrs by Annexin V-FITC/propidium iodide double staining based flow cytometry (reference value: 0.81%); assay type: functional
JeKo-1 [3] = assay: Induction of apoptosis in human JeKo1 cells assessed as late apoptotic cells at 1 uM after 72 hrs by Annexin V-FITC/propidium iodide double staining based flow cytometry (reference value: 2.06%); assay type: functional
JeKo-1 [4] = assay: Induction of apoptosis in human JeKo1 cells assessed as necrotic cells at 1 uM after 72 hrs by Annexin V-FITC/propidium iodide double staining based flow cytometry (reference value: 0.62%); assay type: functional
JeKo-1 [5] = assay: Induction of apoptosis in human JeKo1 cells assessed as necrotic cells at 1 uM after 48 hrs by Annexin V-FITC/propidium iodide double staining based flow cytometry (reference value: 0.62%); assay type: functional
Z-138 = assay: Antiproliferative activity against human Z138 cells after 72 hrs by CellTiter Glo assay; assay type: functional, cell-based; conditions: Z-138, 72 h
JeKo-1 [6] = assay: Induction of apoptosis in human JeKo1 cells assessed as viable cells at 0.5 uM after 48 hrs by Annexin V-FITC/propidium iodide double staining based flow cytometry (reference value: 91.1%); assay type: functional; conditions: JeKo-1, 48 h, read-out: Activity
JeKo-1 [7] = assay: Induction of apoptosis in human JeKo1 cells assessed as late apoptotic cells at 5 uM after 48 hrs by Annexin V-FITC/propidium iodide double staining based flow cytometry (reference value: 1.9%); assay type: functional
JeKo-1 [8] = assay: Induction of apoptosis in human JeKo1 cells assessed as early apoptotic cells at 1 uM after 24 hrs by Annexin V-FITC/propidium iodide double staining based flow cytometry (reference value: 5.42%); assay type: functional
JeKo-1 [9] = assay: Induction of apoptosis in human JeKo1 cells assessed as early apoptotic cells at 1 uM after 72 hrs by Annexin V-FITC/propidium iodide double staining based flow cytometry (reference value: 5.42%); assay type: functional
JeKo-1 [10] = assay: Cell cycle arrest in human JeKo1 cells assessed as accumulation at S phase at 1 uM after 24 hrs by propidium iodide staining based flow cytometry (reference value: 36.8%); assay type: functional
JeKo-1 [11] = assay: Induction of apoptosis in human JeKo1 cells assessed as viable cells at 1 uM after 48 hrs by Annexin V-FITC/propidium iodide double staining based flow cytometry (reference value: 91.1%); assay type: functional; conditions: JeKo-1, 48 h, read-out: Activity
JeKo-1 [12] = assay: Induction of apoptosis in human JeKo1 cells assessed as early apoptotic cells at 0.5 uM after 48 hrs by Annexin V-FITC/propidium iodide double staining based flow cytometry (reference value: 6.18%); assay type: functional
JeKo-1 [13] = assay: Induction of apoptosis in human JeKo1 cells assessed as late apoptotic cells at 0.5 uM after 48 hrs by Annexin V-FITC/propidium iodide double staining based flow cytometry (reference value: 1.9%); assay type: functional
JeKo-1 [14] = assay: Antiproliferative activity against human JeKo1 cells after 72 hrs by CellTiter Glo assay; assay type: functional, cell-based; conditions: JeKo-1, 72 h
JeKo-1 [15] = assay: Induction of apoptosis in human JeKo1 cells assessed as viable cells at 1 uM after 72 hrs by Annexin V-FITC/propidium iodide double staining based flow cytometry (reference value: 91.9%); assay type: functional; conditions: JeKo-1, 72 h, read-out: Activity
JeKo-1 [16] = assay: Induction of apoptosis in human JeKo1 cells assessed as early apoptotic cells at 1 uM after 48 hrs by Annexin V-FITC/propidium iodide double staining based flow cytometry (reference value: 6.18%); assay type: functional
Maver1 = assay: Antiproliferative activity against human Maver1 cells after 72 hrs by CellTiter Glo assay; assay type: functional, cell-based; conditions: Maver1, 72 h
JeKo-1 [17] = assay: Induction of apoptosis in human JeKo1 cells assessed as viable cells at 5 uM after 48 hrs by Annexin V-FITC/propidium iodide double staining based flow cytometry (reference value: 91.1%); assay type: functional; conditions: JeKo-1, 48 h, read-out: Activity
JeKo-1 [18] = assay: Induction of apoptosis in human JeKo1 cells assessed as viable cells at 1 uM after 24 hrs by Annexin V-FITC/propidium iodide double staining based flow cytometry (reference value: 91.9%); assay type: functional; conditions: JeKo-1, 24 h, read-out: Activity
JeKo-1 [19] = assay: Induction of apoptosis in human JeKo1 cells assessed as necrotic cells at 0.5 uM after 48 hrs by Annexin V-FITC/propidium iodide double staining based flow cytometry (reference value: 0.81%); assay type: functional
JeKo-1 [20] = assay: Induction of apoptosis in human JeKo1 cells assessed as early apoptotic cells at 1 uM after 48 hrs by Annexin V-FITC/propidium iodide double staining based flow cytometry (reference value: 5.42%); assay type: functional
JeKo-1 [21] = assay: Cell cycle arrest in human JeKo1 cells assessed as accumulation at G2/M phase at 1 uM after 24 hrs by propidium iodide staining based flow cytometry (reference value: 18.4%); assay type: functional
[22] = Antiproliferative activity against human Mino cells after 72 hrs by CellTiter Glo assay; assay type: functional, cell-based
JeKo-1 [23] = assay: Cell cycle arrest in human JeKo1 cells assessed as accumulation at S phase at 0.5 uM after 24 hrs by propidium iodide staining based flow cytometry (reference value: 36.8%); assay type: functional
JVM-2 = assay: Antiproliferative activity against human JVM2 cells after 72 hrs by CellTiter Glo assay; assay type: functional, cell-based; conditions: JVM-2, 72 h
JeKo-1 [24] = assay: Induction of apoptosis in human JeKo1 cells assessed as late apoptotic cells at 1 uM after 48 hrs by Annexin V-FITC/propidium iodide double staining based flow cytometry (reference value: 2.06%); assay type: functional
JeKo-1 [25] = assay: Induction of apoptosis in human JeKo1 cells assessed as early apoptotic cells at 5 uM after 48 hrs by Annexin V-FITC/propidium iodide double staining based flow cytometry (reference value: 6.18%); assay type: functional
JeKo-1 [26] = assay: Induction of apoptosis in human JeKo1 cells assessed as late apoptotic cells at 1 uM after 48 hrs by Annexin V-FITC/propidium iodide double staining based flow cytometry (reference value: 1.9%); assay type: functional
[27] = Antiproliferative activity against human SP49 cells after 72 hrs by CellTiter Glo assay; assay type: functional, cell-based
JeKo-1 [28] = assay: Cell cycle arrest in human JeKo1 cells assessed as accumulation at G2/M phase at 0.5 uM after 24 hrs by propidium iodide staining based flow cytometry (reference value: 18.4%); assay type: functional
JeKo-1 [29] = assay: Induction of apoptosis in human JeKo1 cells assessed as necrotic cells at 1 uM after 24 hrs by Annexin V-FITC/propidium iodide double staining based flow cytometry (reference value: 0.62%); assay type: functional
JeKo-1 [30] = assay: Cell cycle arrest in human JeKo1 cells assessed as accumulation at G0/G1 phase at 0.5 uM after 24 hrs by propidium iodide staining based flow cytometry (reference value: 44.8%); assay type: functional
JeKo-1 [31] = assay: Cell cycle arrest in human JeKo1 cells assessed as accumulation at G0/G1 phase at 1 uM after 24 hrs by propidium iodide staining based flow cytometry (reference value: 44.8%); assay type: functional
JeKo-1 [32] = assay: Induction of apoptosis in human JeKo1 cells assessed as necrotic cells at 1 uM after 48 hrs by Annexin V-FITC/propidium iodide double staining based flow cytometry (reference value: 0.81%); assay type: functional
JeKo-1 [33] = assay: Induction of apoptosis in human JeKo1 cells assessed as viable cells at 1 uM after 48 hrs by Annexin V-FITC/propidium iodide double staining based flow cytometry (reference value: 91.9%); assay type: functional; conditions: JeKo-1, 48 h, read-out: Activity
JeKo-1 [34] = assay: Induction of apoptosis in human JeKo1 cells assessed as late apoptotic cells at 1 uM after 24 hrs by Annexin V-FITC/propidium iodide double staining based flow cytometry (reference value: 2.06%); assay type: functional

RAC-alpha serine/threonine-protein kinase, sequence (P31749 whole entry): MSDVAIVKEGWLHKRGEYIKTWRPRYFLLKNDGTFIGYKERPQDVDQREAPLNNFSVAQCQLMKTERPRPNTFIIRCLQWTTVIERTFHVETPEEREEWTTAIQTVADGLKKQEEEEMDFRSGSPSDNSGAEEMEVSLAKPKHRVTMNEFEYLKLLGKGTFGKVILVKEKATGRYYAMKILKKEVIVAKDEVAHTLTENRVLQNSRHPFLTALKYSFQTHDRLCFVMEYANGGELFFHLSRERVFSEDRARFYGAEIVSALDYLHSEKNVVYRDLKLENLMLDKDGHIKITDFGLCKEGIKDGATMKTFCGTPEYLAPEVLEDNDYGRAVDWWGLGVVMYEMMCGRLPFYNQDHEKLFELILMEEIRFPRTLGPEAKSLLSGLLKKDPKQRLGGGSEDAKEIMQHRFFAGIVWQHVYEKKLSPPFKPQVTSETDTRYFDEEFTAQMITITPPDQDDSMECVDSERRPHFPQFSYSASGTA

CC(C)(C)c1ccc(C2(C(=O)N3CCN(c4ncnc5[nH]ccc45)CC3)CCNCC2)cc1
IC50 [1]: > 40 nM

O=C(N1CCN(c2ncnc3[nH]cc(Cl)c23)CC1)C1(c2ccc(Cl)cc2)CCNCC1
IC50 [1]: 1.9 nM

COc1ccc(C2(C(=O)N3CCN(c4ncnc5[nH]ccc45)CC3)CCNCC2)cc1
IC50 [1]: 35.6 nM

O=C(N1CCN(c2ncnc3[nH]ccc23)CC1)C1(c2ccc(Br)cc2)CCNCC1
IC50 [1]: 27.1 nM

O=C(N1CCN(c2ncnc3[nH]ccc23)CC1)C1(c2ccc(Cl)cc2)CCNCC1
IC50 [1]: 26.5 nM

O=C(N1CCN(c2ncnc3[nH]cc(Br)c23)CC1)C1(c2cccc(Br)c2)CCNCC1
IC50 [1]: 7.6 nM

O=C(N1CCN(c2ncnc3[nH]cc(Br)c23)CC1)C1(c2ccc(Cl)c(Cl)c2)CCNCC1
IC50 [1]: 4.3 nM

O=C(N1CCN(c2ncnc3[nH]cc(Cl)c23)CC1)C1(c2ccc(Br)cc2)CCNCC1
Activity (JeKo-1 [2]): 0.43% | Activity (JeKo-1 [3]): 10.7% | Activity (JeKo-1 [4]): 0.26% | Activity (JeKo-1 [5]): 0.21% | IC50 (Z-138): 200 nM | viability at 0.5 µM (JeKo-1 [6]): 75.6% | Activity (JeKo-1 [7]): 23% | Activity (JeKo-1 [8]): 9.81% | Activity (JeKo-1 [9]): 53.5% | Activity (JeKo-1 [10]): 18.8% | viability at 1 µM (JeKo-1 [11]): 49.1% | Activity (JeKo-1 [12]): 15.4% | Activity (JeKo-1 [13]): 8.31% | IC50 (JeKo-1 [14]): 300 nM | viability at 1 µM (JeKo-1 [15]): 35.6% | Activity (JeKo-1 [16]): 34% | IC50 (Maver1): 300 nM | viability at 5 µM (JeKo-1 [17]): 6.4% | viability at 1 µM (JeKo-1 [18]): 69.7% | Activity (JeKo-1 [19]): 0.7% | Activity (JeKo-1 [20]): 34% | Activity (JeKo-1 [21]): 72.4% | IC50 [22]: 700 nM | Activity (JeKo-1 [23]): 21.2% | IC50 (JVM-2): 700 nM | Activity (JeKo-1 [24]): 16.6% | IC50 [1]: 1.8 nM | Activity (JeKo-1 [25]): 70.1% | Activity (JeKo-1 [26]): 16.6% | IC50 [27]: 1500 nM | Activity (JeKo-1 [28]): 32.7% | Activity (JeKo-1 [29]): 0.091% | Activity (JeKo-1 [30]): 46.1% | Activity (JeKo-1 [31]): 8.8% | Activity (JeKo-1 [32]): 0.21% | viability at 1 µM (JeKo-1 [33]): 49.1% | Activity (JeKo-1 [34]): 20.4%

CCn1c(-c2nonc2N)nc2c(C#CC(C)(C)O)ncc(OC[C@H]3CCCNC3)c21 [GSK-690693]
IC50 (Z-138): 3100 nM | IC50 (JeKo-1 [14]): 3000 nM | IC50 (Maver1): 5100 nM | IC50 [22]: 20800 nM | IC50 (JVM-2): 1600 nM | IC50 [27]: 4800 nM

O=C(N1CCN(c2ncnc3[nH]cc(Br)c23)CC1)C1(c2ccccc2)CCNCC1
IC50 [1]: 20.3 nM

COc1ccc(C2(C(=O)N3CCN(c4ncnc5[nH]cc(Br)c45)CC3)CCNCC2)cc1
IC50 [1]: 14.1 nM

O=C(N1CCN(c2ncnc3[nH]ccc23)CC1)C1(c2ccc(Cl)c(Cl)c2)CCNCC1
IC50 [1]: > 40 nM

O=C(N1CCN(c2ncnc3[nH]cc(Cl)c23)CC1)C1(c2cccc(Br)c2)CCNCC1
IC50 [1]: 5.6 nM

O=C(Cc1ccc(Cl)cc1)N1CCN(c2ncnc3[nH]cc(Br)c23)CC1
IC50 (Z-138): 6800 nM | IC50 (JeKo-1 [14]): 8700 nM | IC50 (Maver1): 18500 nM | IC50 [22]: 18100 nM | IC50 (JVM-2): 9900 nM | IC50 [1]: 18 nM | IC50 [27]: 7800 nM

O=C(N1CCN(c2ncnc3[nH]cc(Br)c23)CC1)C1(c2ccc(Cl)cc2)CCNCC1
IC50 (Z-138): 1700 nM | IC50 (JeKo-1 [14]): 1200 nM | IC50 (Maver1): 1800 nM | IC50 [22]: 3500 nM | IC50 (JVM-2): 2300 nM | IC50 [1]: 1.5 nM | IC50 [27]: 4700 nM

O=C(N1CCN(c2ncnc3[nH]cc(Cl)c23)CC1)C1(c2ccc(Cl)c(Cl)c2)CCNCC1
IC50 [1]: 2.9 nM

— ChEMBL document CHEMBL4190265, “Structural optimization elaborates novel potent Akt inhibitors with promising anticancer activity” (Eur J Med Chem, 2017)
